The values below come from US9963462B2 (priority 2015, dated 2018).

Broadly, the IC50 is the concentration needed to halve the response being measured.

This experiment concerns the target SNAP-hSPR (sepiapterin reductase, SPR) (Homo sapiens, UniProt P35270). Nature of the experiment: biochemical. As to conditions: terbium labelled SNAP-hSPR / SSZ labelled SNAP-EGFP; read-out: hTR-FRET IC50. In kind it is binding.

SNAP-hSPR (sepiapterin reductase, SPR), sequence (P35270 whole entry): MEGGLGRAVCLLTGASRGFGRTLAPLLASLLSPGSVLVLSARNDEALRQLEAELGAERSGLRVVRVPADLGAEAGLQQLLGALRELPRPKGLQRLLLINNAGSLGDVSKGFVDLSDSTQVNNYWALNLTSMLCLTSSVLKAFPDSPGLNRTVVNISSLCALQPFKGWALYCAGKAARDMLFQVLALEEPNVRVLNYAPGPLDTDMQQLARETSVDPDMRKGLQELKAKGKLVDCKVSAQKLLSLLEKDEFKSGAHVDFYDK
Text: TR-FRET Assay: A TR-FRET (homogeneous, time-resolved, fluorescence resonance energy transfer) assay was used to assess activity of compounds following standard assay conditions. […] Compounds were screened at different concentrations and IC50 values calculated.
Terbium labelled SNAP-hSPR and SSZ (sulfasalazine) labelled SNAP-EGFP were used as the protein pair in this assay. Compounds were screened at different concentrations, and 1050 and Kd values calculated.

With `Cc1cc2nc(-n3ncc(C(=O)N4CCc5ccccc5C4)c3C)[nH]c(=O)c2s1` [Q-0407], the 50% inhibitory concentration (IC50) is 1700 nM.

As to `Cc1c(C(=O)N2CCC(S(C)(=O)=O)CC2)cnn1-c1nn2cccc2c(=O)[nH]1` [Q-1985], the concentration for half-maximal inhibition (IC50) is 2 nM.

With `Cc1c(C(=O)N2CCc3c(c(C(F)(F)F)nn3C)C2)cnn1-c1nn2cccc2c(=O)[nH]1` [Q-2048], the IC50 is 4 nM.

In the case of `Cc1c(C(=O)N2CCN(S(=O)(=O)c3cnn(C)c3)CC2)cnn1-c1nn2cccc2c(=O)[nH]1` [Q-1832], the IC50 was 3 nM.

Take `Cc1c(C(=O)N2CC[C@@H]2c2ccc(F)nc2)cnn1-c1nn2cccc2c(=O)[nH]1` [Q-2054]: the IC50 was found to be 4 nM.

In the case of `CCn1ccc2c(=O)[nH]c(-n3ncc(C(=O)N4CCN(CC(F)(F)F)CC4)c3C)nc21` [Q-1292], the IC50 stood at 5000 nM.

`Cc1c(C(=O)N2CCN(CC(F)(F)F)CC2)cnn1-c1nc2c(c(=O)[nH]1)CC(C)(C)C2` [Q-1563]: the IC50 came to 5000 nM.

As for `Cc1c(C(=O)N2CCN(S(=O)(=O)c3ccc(OC(F)(F)F)cc3)CC2)cnn1-c1nn2cccc2c(=O)[nH]1` [Q-1798, 2-(5-methyl-4-(4-(4-(trifluoromethoxy)phenylsulfonyl)piperazine-1-carbonyl)-1H-pyrazol-1-yl)pyrrolo[1,2-f][1,2,4]triazin-4(3H)-one], the IC50 was 2 nM.

Turning to `Cc1c(C(=O)N2CCN(S(=O)(=O)c3ccc(Cl)c(Cl)c3)CC2)cnn1-c1nn2cccc2c(=O)[nH]1` [Q-1830], the IC50 was determined as 2 nM.

For the molecule `Cc1c(C(=O)O)cnn1-c1nc2sccc2c(=O)[nH]1` [Q-0542], the concentration for half-maximal inhibition (IC50) came out at 100 nM.

For the molecule `Cc1c(C(=O)N2CCOCC2)cnn1-c1nc2ccccc2c(=O)[nH]1` [Q-0320], the IC50 amounted to 1300 nM.

Regarding `Cc1c(C(=O)N2CC(N3CCC(F)(F)C3)C2)cnn1-c1nc2[nH]ncc2c(=O)[nH]1` [Q-1345], the IC50 stood at 1400 nM.

Take `Cc1cc(-n2ncc(C(=O)N3CCC(C(F)(F)F)CC3)c2C)[nH]c(=O)n1` [Q-0454]: the IC50 is 300 nM.

As to `Cc1cc(=O)[nH]c(-n2ncc(C(=O)N3CCC4(CCN(C)C4)C3)c2C)n1` (stereo not shown) [Q-0322], the IC50 was 200 nM.

As to `Cc1c(C(=O)N2CCc3ccccc3C2)cnn1-c1nc2cc(Cl)sc2c(=O)[nH]1` [Q-0394], the IC50 amounted to 1500 nM.

For `Cc1c(C(=O)NC2CCCC2)cnn1-c1nc2ccccc2c(=O)[nH]1` [Q-0321], the IC50 worked out at 900 nM.

Regarding `Cc1c(C(=O)N2CCc3[nH]nc(C(F)(F)F)c3C2)cnn1-c1nn2cccc2c(=O)[nH]1` [Q-2031], the IC50 came to 3 nM.

Consider `Cc1c(C(=O)N2CC(N3CCC(F)(F)C3)C2)cnn1-c1nc2c(ccn2C)c(=O)[nH]1` [Q-1322], for which the 50% inhibitory concentration (IC50) was determined as 400 nM.

For the molecule `COC(=O)c1cnn(-c2nc3c(c(=O)[nH]2)CC(C)(C)C3)c1C` [Q-1641], the IC50 was 5000 nM.

`CCn1ccc2c(=O)[nH]c(-n3ncc(C(=O)N4CC5CC(C4)N5CC(F)(F)F)c3C)nc21` [Q-1341]: the IC50 is 5000 nM.

As to `Cc1c(C(=O)N2CC3(C2)CC(F)(F)C3)cnn1-c1nc2c(c(=O)[nH]1)CC(C)(C)C2` [Q-1565], the IC50 was 5000 nM.

In the case of `Cc1cc(=O)[nH]c(-c2c(C)nn(CCC(=O)N3CCCC3)c2C)n1` [Q-0306], the IC50 stood at 25000 nM.

In the case of `Cc1c(C(=O)N2CC(N3CCC(F)(F)C3)C2)cnn1-c1nc2c(c(=O)[nH]1)CC(C)(C)C2` [Q-1564, 2-(4-(3-(3,3-difluoropyrrolidin-1-yl)azetidine-1-carbonyl)-5-methyl-1H-pyrazol-1-yl)-6,6-dimethyl-6,7-dihydro-3H-cyclopenta[d]pyrimidin-4(5H)-one], the IC50 turned out to be 5000 nM.

Regarding `Cc1cc(-c2c(C)nn(CCC(=O)N3CCc4ccccc4C3)c2C)[nH]c(=O)n1` [Q-0285, 4-{3,5-dimethyl-1-[3-oxo-3-(1,2,3,4-tetrahydroisoquinolin-2-yl)propyl]-1H-pyrazol-4-yl}-6-methyl-1,2-dihydropyrimidin-2-one], the IC50 came to 40000 nM.

As to `Cc1c(C(=O)N2CCN(S(=O)(=O)c3ccc(F)c(Cl)c3)CC2)cnn1-c1nn2cccc2c(=O)[nH]1` [Q-1801], the IC50 came to 2 nM.

For `O=C(O)c1cnn(-c2nc3c(c(=O)[nH]2)CCC3)c1C1CC1` [Q-0544], the IC50 stood at 30 nM.

For the molecule `Cc1nc(-n2ncc(C(=O)N3CCC(C(F)(F)F)CC3)c2C)cc(=O)[nH]1` [Q-0436], the IC50 amounted to 4600 nM.

For the molecule `Cc1cc(=O)n(C)c(-n2ncc(C(=O)N3CCc4ccccc4C3)c2C)n1` [Q-0455], the concentration for half-maximal inhibition (IC50) was determined as 16000 nM.

Take `COc1ccc(S(=O)(=O)N2CCN(C(=O)c3cnn(-c4nn5cccc5c(=O)[nH]4)c3C)CC2)cc1` [Q-1804]: the IC50 amounted to 2 nM.

Regarding `Cc1c(C(=O)N2CC3CC(C2)N3CC(F)(F)F)cnn1-c1nc2c(c(=O)[nH]1)COC2` [Q-1483], the IC50 came out at 30 nM.

Regarding `Cc1c(C(=O)N2CCN(S(=O)(=O)c3ccc4c(c3)OCO4)CC2)cnn1-c1nn2cccc2c(=O)[nH]1` [Q-1829], the IC50 was 2 nM.

Consider `Cc1c(C(=O)N2CCN(S(=O)(=O)c3cccc(C(=O)O)c3)CC2)cnn1-c1nn2cccc2c(=O)[nH]1` [Q-1845], for which the IC50 was found to be 2 nM.

Regarding `Cc1c(C(=O)N2CCN(S(=O)(=O)c3cnc4ccccc4c3)CC2)cnn1-c1nn2cccc2c(=O)[nH]1` [Q-1864], the IC50 is 4 nM.

As to `Cc1c(C(=O)N2CCN(c3nnc(-c4cccnc4)o3)CC2)cnn1-c1nn2cccc2c(=O)[nH]1` [Q-1150], the IC50 is 1 nM.

As for `COc1ccc(OC)c(S(=O)(=O)N2CCN(C(=O)c3cnn(-c4nn5cccc5c(=O)[nH]4)c3C)CC2)c1` [Q-1839], the IC50 came to 2 nM.

On to `Cc1c(C(=O)N2CCN(S(=O)(=O)c3ccc4ccccc4c3)CC2)cnn1-c1nn2cccc2c(=O)[nH]1` [Q-1831], for which the IC50 was found to be 3 nM.

Regarding `Cc1c(C(=O)N2CCN(S(=O)(=O)c3cc(Cl)c(Cl)s3)CC2)cnn1-c1nn2cccc2c(=O)[nH]1` [Q-1814], the IC50 was 2 nM.

Turning to `Cc1cc(=O)[nH]c(-n2nc(C)c(CCC(=O)N3CCCCC3C)c2C)n1` (stereo not shown) [Q-0002], the IC50 stood at 30 nM.

Take `Cc1c(C(=O)N2CC[C@H]2c2ccc(F)nc2)cnn1-c1nn2cccc2c(=O)[nH]1` [Q-2055]: the IC50 was 7 nM.

Regarding `Cc1c(C(=O)N2CC3CC(C2)N3CC(F)(F)F)cnn1-c1nc2[nH]ncc2c(=O)[nH]1` [Q-1560], the IC50 worked out at 800 nM.

For `Cc1c(C(=O)N2CCN(CC(F)(F)F)CC2)cnn1-c1nc2c(ccn2C)c(=O)[nH]1` [Q-1266], the IC50 was 200 nM.

For `Cc1c(C(=O)N2CC(N3CCC(F)(F)C3)C2)cnn1-c1nc2c(c(=O)[nH]1)COC2` [Q-1343], the IC50 was determined as 70 nM.

Take `CCn1ccc2c(=O)[nH]c(-n3ncc(C(=O)N4CC(N5CCC(F)(F)C5)C4)c3C)nc21` [Q-1311]: the concentration for half-maximal inhibition (IC50) was found to be 5000 nM.

`Cc1c(C(=O)N2CCNCC2)cnn1-c1nn2cccc2c(=O)[nH]1` [Q-1251]: the IC50 stood at 50 nM.

Regarding `Cc1c(C(=O)N2CCN(C(=O)c3ccco3)CC2)cnn1-c1nn2cccc2c(=O)[nH]1` [Q-2032], the IC50 came out at 6 nM.

With `Cc1c(C(=O)O)cnn1-c1nc2c(c(=O)[nH]1)CC(C)(C)C2` [Q-1597], the IC50 is 5000 nM.

Regarding `Cc1c(C(=O)N2CCN(S(=O)(=O)c3cccc(C(F)(F)F)c3)CC2)cnn1-c1nn2cccc2c(=O)[nH]1` [Q-1826], the IC50 was 2 nM.

Turning to `Cc1c(C(=O)N2CC3(C2)CC(F)(F)C3)cnn1-c1nc2c(c(=O)[nH]1)COC2` [Q-1346], the IC50 came to 50 nM.

Regarding `Cc1nc(-n2ncc(C(=O)N3c4ccccc4C[C@@H]3C)c2C)[nH]c(=O)c1C` (single isomer, unassigned) [Q-0457], the IC50 amounted to 100 nM.

For the molecule `Cc1cc(=O)[nH]c(-c2cnn(CCC(=O)N3CCc4ccccc4C3)c2)n1` (single isomer, unassigned) [Q-0291, 6-methyl-2-{1-[3-oxo-3-(1,2,3,4-tetrahydroisoquinolin-2-yl)propyl]-1H-pyrazol-4-yl}-3,4-dihydropyrimidin-4-one], the 50% inhibitory concentration (IC50) was determined as 2700 nM.

`Cc1c(C(=O)N2CCN(S(=O)(=O)c3ccc(Cl)c(C(F)(F)F)c3)CC2)cnn1-c1nn2cccc2c(=O)[nH]1` [Q-1840]: the half-inhibitory concentration (IC50) came to 3 nM.

Turning to `Cc1nc(-n2ccc(C(=O)N3CCC(C(F)(F)F)CC3)n2)cc(=O)[nH]1` [Q-0437, 2-methyl-6-{3-[4-(trifluoromethyl)piperidine-1-carbonyl]-1H-pyrazol-1-yl}-3,4-dihydropyrimidin-4-one], the IC50 turned out to be 5000 nM.

As for `Cc1c(C(=O)N2CC3CC(C2)N3CC(F)(F)F)cnn1-c1nc2c(ccn2C)c(=O)[nH]1` [Q-1365], the IC50 turned out to be 1000 nM.

Turning to `Cc1c(C(=O)N2CCC(C(F)(F)F)CC2)cnn1-c1nc2ccnn2c(=O)[nH]1` [Q-0447], the IC50 was found to be 400 nM.

As to `Cc1c(C(=O)N2CCC2c2ccnc(F)c2)cnn1-c1nn2cccc2c(=O)[nH]1` (stereo not shown) [Q-1320], the IC50 amounted to 20 nM.

With `Cc1cc(=O)[nH]c(-n2nc(C)c(CC(=O)N3CCCC3)c2C)n1` [Q-0301], the IC50 was determined as 200 nM.

`Cc1c(C(=O)N2CCN(S(=O)(=O)c3ccc(Br)cc3)CC2)cnn1-c1nn2cccc2c(=O)[nH]1` [Q-1837]: the half-inhibitory concentration (IC50) is 1 nM.

Turning to `Cc1c(C(=O)N2CCN(S(=O)(=O)c3ccc(C(C)(C)C)cc3)CC2)cnn1-c1nn2cccc2c(=O)[nH]1` [Q-1800], the IC50 amounted to 2 nM.

On to `CC(=O)Nc1ccc(S(=O)(=O)N2CCN(C(=O)c3cnn(-c4nn5cccc5c(=O)[nH]4)c3C)CC2)cc1` [Q-1833], for which the IC50 was determined as 1 nM.

For `Cc1c(C(=O)N2CCC(S(=O)(=O)N3CCCC3)CC2)cnn1-c1nn2cccc2c(=O)[nH]1` [Q-2007], the half-maximal inhibitory concentration (IC50) turned out to be 1 nM.

Take `Cc1cc2c(=O)[nH]c(-n3ncc(C(=O)N4CCC(C(F)(F)F)CC4)c3C)nc2s1` [Q-0413]: the IC50 turned out to be 2200 nM.

Consider `Cc1c(C(=O)N2CCN(C3COC3)CC2)cnn1-c1nn2cccc2c(=O)[nH]1` [Q-2041], for which the IC50 was 3 nM.

In the case of `CC(=O)Nc1nc(C)c(S(=O)(=O)N2CCN(C(=O)c3cnn(-c4nn5cccc5c(=O)[nH]4)c3C)CC2)s1` [Q-1827], the half-inhibitory concentration (IC50) was 1 nM.

With `Cc1cc(=O)[nH]c(-c2cnn(CCC(=O)N3CCCC3)c2)n1` [Q-0283, 6-methyl-2-{1-[3-oxo-3-(pyrrolidin-1-yl)propyl]-1H-pyrazol-4-yl}-3,4-dihydropyrimidin-4-one], the IC50 was determined as 1500 nM.
